Reference: article PMC9775090, “Identification of Bioactive Peptides from Nannochloropsis oculata Using a Combination of Enzymatic Treatment, in Silico Analysis and Chemical Synthesis” (Biomolecules, 2022)
Entries after “also recorded” stand apart in the source; their conditions may differ. Read-outs that look alike come from different tables or passages of the source. Where no end group is shown, it is not given here.

Experiments:
ovine recombinant COX-1 = test: Cyclooxygenase inhibition, cell free assay (COX-1); type: biochemical; conditions: for COX-1 inhibition: assayed at 1 mg/mL, ovine recombinant COX-1
Description: (§1) In vitro assays to determine COX inhibition were performed using cell free assays as described previously. The synthesised peptides were incubated independently with ovine recombinant COX-1 (Cayman Chemicals, Hamburg, Germany) or human recombinant COX-2 (Cayman Chemicals, Hamburg, Germany). The assay was carried out in accordance with the manufacturer’s instructions. Resveratrol (Merck, Dublin, Ireland) was used as a positive control.

human recombinant COX-2 = test: Cyclooxygenase inhibition, cell free assay (COX-2); type: biochemical; conditions: for COX-2 inhibition: assayed at 1 mg/mL, human recombinant COX-2
Description: as §1

[1] = target: T1, Angiotensin-1-converting enzyme (ACE-1) (Homo sapiens, UniProt P12821); test: ACE-1 inhibition, ACE kit-WST 96-well colorimetric assay; type: biochemical; conditions: for Observed Bioactivity In Vitro (ACE-1): result in words; for % ACE-1 inhibition / inhibition at 1000 µg/mL: synthesised peptides assayed at 1 mg/mL, n = 3; for inhibition at 1000 µg/mL: read-out: % ACE-1 inhibition
T1 construct: purchased Tebu Bio (TebuBio Ltd., Peterborough, UK)
Description: The ACE-I inhibitory activity was determined using a 96 well plate bioassay supplied by Tebu-Bio (TebuBio Ltd., Peterborough, UK) in accordance with the manufacturers’ instructions. Briefly, the enzyme working solution and indicator working solution were prepared according to the manufacturer’s instructions. […] Blanks were included. 20 µL of the substrate buffer was added to each well, followed by 20 µL of the enzyme working solution to experimental wells and blank one wells. The plate was incubated at 37 °C for 1 h. After incubation, 200 µL indicator working solution was added to each well, and the plate was incubated at room temperature for 10 min. […] Absorbance was measured using a plate reader at 450 nm. For IC50 determination, the ACE kit-WST was also used.

Escherichia coli DSM 301 = test: Modified agar well diffusion assay, E. coli; type: cell-based; conditions: 1 mg/mL in 30 µL well, 24 h
Description: (§2) The antibacterial activity of synthesised peptides was determined using an overnight culture of the pathogenic bacteria in a modified agar well diffusion assay as described previously. A zone of inhibition around wells containing the peptides indicates antibacterial activity. Escherichia coli DSM 301 and Bacillus cereus DSM 31 were used as indicator pathogen strains. Ampicillin (Merck, Dublin, Ireland) and Cecropin P1 (Merck, Dublin Ireland) were used as positive control antibiotics and antimicrobial peptides. Positive controls or test peptides were incubated (concentration 1 mg/mL) in a well (30 µL capacity) on the agar plate which was seeded with the pathogenic strain at an overnight culture to media ratio of 100 µL: 500 mL (v:v). Plates were left at 4 °C for 4 h and subsequently incubated at the optimum culture temperature and conditions for the pathogen in question. After 24 h, zones of inhibition indicated the presence of antibacterial activity.

Bacillus cereus DSM 31 = test: Modified agar well diffusion assay, B. cereus; type: cell-based; conditions: 1 mg/mL in 30 µL well, 24 h
Description: as §2

ACE-1 = conditions: cited from earlier work
Description: Limited studies exist concerning the use of Nannochloropsis sp. as a source of protein, protein hydrolysates or bioactive peptides. Recently, […] et al. […] Enzymatic treatment of biomass is a useful strategy for generation of bioactive peptide containing concentrates. […] These peptides were selected based on their Peptide Ranker scores and amino acid sequences. The ACE-1 and COX-1/COX-2 assays were performed as described previously described using commercially available kits from Cambridge BioSciences (Cambridge BioSciences, Cambridge, UK).

[2] = peptides from pepsin treated Nannochloropsis oculata

T1 sequence (P12821 30-1306): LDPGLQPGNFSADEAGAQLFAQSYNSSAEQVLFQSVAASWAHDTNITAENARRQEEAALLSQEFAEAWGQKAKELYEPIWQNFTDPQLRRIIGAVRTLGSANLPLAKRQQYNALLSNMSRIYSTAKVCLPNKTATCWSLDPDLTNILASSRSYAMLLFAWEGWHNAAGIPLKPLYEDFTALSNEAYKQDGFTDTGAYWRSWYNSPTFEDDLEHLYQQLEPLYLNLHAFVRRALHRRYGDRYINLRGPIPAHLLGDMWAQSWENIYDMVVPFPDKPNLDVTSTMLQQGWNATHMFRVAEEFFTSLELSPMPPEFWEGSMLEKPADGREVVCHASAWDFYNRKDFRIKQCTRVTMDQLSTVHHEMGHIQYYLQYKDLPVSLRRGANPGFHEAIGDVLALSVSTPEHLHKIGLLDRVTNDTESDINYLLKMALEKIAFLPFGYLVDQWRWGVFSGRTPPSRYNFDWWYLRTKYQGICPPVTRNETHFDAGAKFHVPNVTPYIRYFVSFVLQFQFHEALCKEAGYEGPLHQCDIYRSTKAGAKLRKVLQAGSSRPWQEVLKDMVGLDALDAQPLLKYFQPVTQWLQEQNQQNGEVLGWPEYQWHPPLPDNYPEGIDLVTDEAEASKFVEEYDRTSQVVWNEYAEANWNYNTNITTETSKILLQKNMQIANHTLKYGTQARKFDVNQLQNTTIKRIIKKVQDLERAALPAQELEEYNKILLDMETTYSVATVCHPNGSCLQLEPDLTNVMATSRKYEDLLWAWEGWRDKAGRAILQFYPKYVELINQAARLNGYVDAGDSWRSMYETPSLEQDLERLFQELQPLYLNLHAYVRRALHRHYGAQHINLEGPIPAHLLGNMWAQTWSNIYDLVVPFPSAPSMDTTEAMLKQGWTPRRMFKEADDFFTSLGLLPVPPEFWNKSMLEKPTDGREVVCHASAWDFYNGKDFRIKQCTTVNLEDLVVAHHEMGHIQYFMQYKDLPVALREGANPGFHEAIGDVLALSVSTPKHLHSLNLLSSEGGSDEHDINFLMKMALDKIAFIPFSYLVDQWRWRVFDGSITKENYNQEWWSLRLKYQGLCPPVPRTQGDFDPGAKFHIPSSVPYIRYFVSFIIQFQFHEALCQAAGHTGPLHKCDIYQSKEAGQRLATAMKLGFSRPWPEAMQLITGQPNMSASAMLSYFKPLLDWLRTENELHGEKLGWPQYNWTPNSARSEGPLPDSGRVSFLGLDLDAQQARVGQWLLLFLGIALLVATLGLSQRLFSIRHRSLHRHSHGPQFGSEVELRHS

## Oc1ccc(/C=C/c2cc(O)cc(O)c2)cc1 [Resveratrol, reference compound]
Ovine recombinant COX-1
  COX-1 inhibition: 78.41 (±2.92) %
Human recombinant COX-2
  COX-2 inhibition: 70.41%

## AGDVGFDPLGF
[1]
  Observed Bioactivity In Vitro (ACE-1): ACE-1 inhibitory
Escherichia coli DSM 301
  Antibacterial activity against E. coli (zone of inhibition): having antibacterial activity in vitro against E. coli; also recorded: produced a zone of inhibition; also recorded: Antibacterial activity against E. coli at a concentration of 1 mg/mL
Bacillus cereus DSM 31
  Antibacterial activity against B. cereus (zone of inhibition): not B. cereus

## GMNNLTP [GMNNLTP]
ACE-1; [2]
  IC50: 123 µM

## KGGGSGANGGRL [peptide identified in Nannochloropsis sp. xylanase permeate, chemically synthesised; spelt three ways]
[1]; listed as KGGGGGANGGRL
  % ACE-1 inhibition: 35.81%

## LVGADAHALGVICS [peptide corresponding to a transcriptor initiation protein from Porphyridium sp., chemically synthesised]
[1]
  Observed Bioactivity In Vitro (ACE-1): ACE-1 inhibition

## Leu-Glu-Gln [LEQ]
ACE-1; [2]
  IC50: 173 µM

## Leu-Val-Thr-Val-Met
ACE-1; purified peptide from Alcalase hydrolysate
  IC50: 18 µM

## NKFPYTTQ [NKFPYTTQ]
[1]
  inhibition at 1000 µg/mL: 76.8%

## VVGAVGAADLL [peptide corresponding to HEAT repeat-containing protein 1 of Ectocarpus siliculosus, chemically synthesised]
[1]
  Observed Bioactivity In Vitro (ACE-1): ACE-1 inhibition
  % ACE-1 inhibition: 25.73%

## VYNKFPYTTQ [VYNKFPYTTQ]
[1]
  inhibition at 1000 µg/mL: 81.7%

## YANDLLCMPI [peptide identified in Nannochloropsis sp. xylanase permeate, chemically synthesised]
Ovine recombinant COX-1
  COX-1 inhibition: 34.5%
Ovine recombinant COX-1; result in words
  Observed Bioactivity In Vitro (COX-1): COX-1 and COX-2 inhibition
Human recombinant COX-2
  COX-2 inhibition: 47.65%
Human recombinant COX-2; result in words
  Observed Bioactivity In Vitro (COX-2): COX-1 and COX-2 inhibition
